Laboratory results as given in patent US8461083B2, “Herbicidal compounds” (Syngenta Limited, priority 2008, dated 2013).

Tests used:
Type in all cases: in vivo
[1] = test system: Alopecurus myosuroides (ALOMY); assay: Post-emergence herbicidal glasshouse test; details: post-emergence (sprayed after 8 days cultivation), evaluated after 13 days, 100=total damage to plant, 0=no damage to plant; for pest or weed control at 1000 g/ha: Alopecurus myosuroides, 312 h, read-out: POST Application ALOMY, damage to plant; for POST Application ALOMY, damage to plant: 1000 g/ha
Outline: (§1)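 Rates of 1000 g/ha are applied as an acetone/water (50:50) spray with 0.5% Tween 20 to soil-sown pots, pre-emergence at day 1 or post-emergence at day 8. Percent damage is assessed after 13 days.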

[2] = test system: Amaranthus retoflexus (AMARE); assay: Post-emergence herbicidal glasshouse test; details: post-emergence (sprayed after 8 days cultivation), evaluated after 13 days, 100=total damage to plant, 0=no damage to plant; for pest or weed control at 1000 g/ha: Amaranthus retroflexus, 312 h, read-out: POST Application AMARE, damage to plant; for POST Application AMARE, damage to plant: 1000 g/ha
Outline: as §1

Solanum nigrum (SOLNI) [3] = assay: Post-emergence herbicidal glasshouse test; details: post-emergence (sprayed after 8 days cultivation), evaluated after 13 days, 100=total damage to plant, 0=no damage to plant; for pest or weed control at 1000 g/ha: Solanum nigrum, 312 h, read-out: POST Application SOLNI, damage to plant; for POST Application SOLNI, damage to plant: 1000 g/ha
Outline: as §1

[4] = test system: Echinochloa crus-galli (ECHCG); assay: Post-emergence herbicidal glasshouse test; details: post-emergence (sprayed after 8 days cultivation), evaluated after 13 days, 100=total damage to plant, 0=no damage to plant; for pest or weed control at 1000 g/ha: Echinochloa crus-galli, 312 h, read-out: POST Application ECHCG, damage to plant; for POST Application ECHCG, damage to plant: 1000 g/ha
Outline: (§2)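 Damage was rated visually 13 days after treatment on a 0–100 scale, 100 meaning total damage. Pot-grown plants received a 1000 g/ha spray in acetone/water (50:50) containing 0.5% Tween 20, either one day after sowing or after eight days of growth.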

Setaria faberi (SETFA) [5] = assay: Post-emergence herbicidal glasshouse test; details: post-emergence (sprayed after 8 days cultivation), evaluated after 13 days, 100=total damage to plant, 0=no damage to plant; for pest or weed control at 1000 g/ha: Setaria faberi, 312 h, read-out: POST Application SETFA, damage to plant; for POST Application SETFA, damage to plant: 1000 g/ha
Outline: as §1

[6] = test system: Alopecurus myosuroides (ALOMY); assay: Pre-emergence herbicidal glasshouse test; details: pre-emergence (sprayed after one day cultivation), evaluated after 13 days, 100=total damage to plant, 0=no damage to plant; for pest or weed control at 1000 g/ha: Alopecurus myosuroides, 312 h, read-out: PRE Application ALOMY, damage to plant; for PRE Application ALOMY, damage to plant: 1000 g/ha
Outline: as §1

[7] = test system: Amaranthus retoflexus (AMARE); assay: Pre-emergence herbicidal glasshouse test; details: pre-emergence (sprayed after one day cultivation), evaluated after 13 days, 100=total damage to plant, 0=no damage to plant; for pest or weed control at 1000 g/ha: Amaranthus retroflexus, 312 h, read-out: PRE Application AMARE, damage to plant; for PRE Application AMARE, damage to plant: 1000 g/ha
Outline: as §1

Solanum nigrum (SOLNI) [8] = assay: Pre-emergence herbicidal glasshouse test; details: pre-emergence (sprayed after one day cultivation), evaluated after 13 days, 100=total damage to plant, 0=no damage to plant; for pest or weed control at 1000 g/ha: Solanum nigrum, 312 h, read-out: PRE Application SOLNI, damage to plant; for PRE Application SOLNI, damage to plant: 1000 g/ha
Outline: as §1

[9] = test system: Echinochloa crus-galli (ECHCG); assay: Pre-emergence herbicidal glasshouse test; details: pre-emergence (sprayed after one day cultivation), evaluated after 13 days, 100=total damage to plant, 0=no damage to plant; for pest or weed control at 1000 g/ha: Echinochloa crus-galli, 312 h, read-out: PRE Application ECHCG, damage to plant; for PRE Application ECHCG, damage to plant: 1000 g/ha
Outline: as §2

Setaria faberi (SETFA) [10] = assay: Pre-emergence herbicidal glasshouse test; details: pre-emergence (sprayed after one day cultivation), evaluated after 13 days, 100=total damage to plant, 0=no damage to plant; for pest or weed control at 1000 g/ha: Setaria faberi, 312 h, read-out: PRE Application SETFA, damage to plant; for PRE Application SETFA, damage to plant: 1000 g/ha
Outline: as §1

Compound | pest or weed control at 1000 g/ha [1] [%] | pest or weed control at 1000 g/ha [2] [%] | pest or weed control at 1000 g/ha (Solanum nigrum (SOLNI) [3]) [%] | pest or weed control at 1000 g/ha [4] [%] | pest or weed control at 1000 g/ha (Setaria faberi (SETFA) [5]) [%] | pest or weed control at 1000 g/ha [6] [%] | pest or weed control at 1000 g/ha [7] [%] | pest or weed control at 1000 g/ha (Solanum nigrum (SOLNI) [8]) [%] | pest or weed control at 1000 g/ha [9] [%] | pest or weed control at 1000 g/ha (Setaria faberi (SETFA) [10]) [%] | POST Application ALOMY, damage to plant [1] | POST Application AMARE, damage to plant [2] | POST Application SOLNI, damage to plant (Solanum nigrum (SOLNI) [3]) | POST Application ECHCG, damage to plant [4] | POST Application SETFA, damage to plant (Setaria faberi (SETFA) [5]) | PRE Application ALOMY, damage to plant [6] | PRE Application AMARE, damage to plant [7] | PRE Application SOLNI, damage to plant (Solanum nigrum (SOLNI) [8]) | PRE Application ECHCG, damage to plant [9] | PRE Application SETFA, damage to plant (Setaria faberi (SETFA) [10])
CCNc1nc2nc(C(F)(F)F)c(C(=O)C3C(=O)CCCC3=O)cc2cc1F [Compound 1.84] | 70 | 80 | 80 | 80 | 80 | 60 | 100 | 100 | 100 | 100 | – | – | – | – | – | – | – | – | – | –
CNc1nc2nc(C(F)(F)F)c(C(=O)C3C(=O)CCCC3=O)cc2cc1F [Compound 1.98, 2-[6-fluoro-7-methylamino-2-trifluoromethyl-[1,8]-naphthyridine-3-carbony]-cyclohexane-1,3-dione] | 70 | 90 | 40 | 80 | 80 | 20 | 100 | 100 | 100 | 100 | – | – | – | – | – | – | – | – | – | –
CCCCC(C)Oc1ccc2cc(C(=O)C3C(=O)CCCC3=O)c(C(F)(F)F)nc2n1 (centres unmarked) [Compound 1.56] | – | – | – | – | – | – | – | – | – | – | 30 | 70 | 80 | 70 | 80 | 20 | 40 | 100 | 80 | 90
O=C1CCCC(=O)C1C(=O)c1cc2ccc(=O)n(Cc3ccccc3F)c2nc1C(F)(F)F [Compound 2.12] | – | – | – | – | – | – | – | – | – | – | 70 | 70 | 100 | 70 | 90 | 80 | 60 | 90 | 90 | 90
CC(F)(F)c1ccc2cc(C(=O)C3C(=O)CCCC3=O)c(C(F)(F)F)nc2n1 [Compound 1.36, 2-[7-(1,1-difluoroethyl)-2-trifluoromethyl-[1,8]-naphthyridine-3-carbony]-cyclohexane-1,3-dione] | – | – | – | – | – | – | – | – | – | – | 90 | 100 | 100 | 90 | 90 | 70 | 100 | 100 | 90 | 100
CCOc1nc2nc(C(F)(F)F)c(C(=O)C3C(=O)C4CCC(C4)C3=O)cc2cc1F (centres unmarked) [Compound 3.4] | 70 | 70 | 90 | 80 | 90 | 70 | 100 | 100 | 100 | 100 | – | – | – | – | – | – | – | – | – | –
CC(C)(F)c1ccc2cc(C(=O)C3C(=O)CCCC3=O)c(C(F)(F)F)nc2n1 [Compound 1.37] | – | – | – | – | – | – | – | – | – | – | 80 | 100 | 70 | 90 | 90 | 80 | 100 | 100 | 100 | 100
N#CCn1c(=O)ccc2cc(C(=O)C3C(=O)CCCC3=O)c(C(F)(F)F)nc21 [Compound 2.3] | – | – | – | – | – | – | – | – | – | – | 20 | 90 | 90 | 80 | 90 | 20 | 90 | 90 | 80 | 60
CCc1nc2nc(C(F)(F)F)ccc2cc1C(=O)C1C(=O)CCCC1=O [Compound 1.107, 2-[2-ethyl-7-trifluoromethyl-[1,8]-naphthyridine-3-carbony]-cyclohexane-1,3-dione] | 50 | 100 | 100 | 80 | 90 | 30 | 100 | 90 | 100 | 100 | – | – | – | – | – | – | – | – | – | –
O=C1CCCC(=O)C1C(=O)c1cc2ccc(O)nc2nc1C(F)(F)F [Compound 1.21, 2-(7-hydroxy-2-trifluoromethyl-[1,8]-naphthyridine-3-carbony)-cyclohexane-1,3-dione] | 100 | 100 | 100 | 100 | 100 | 80 | 100 | 100 | 100 | 100 | – | – | – | – | – | – | – | – | – | –
O=C1CCCC(=O)C1C(=O)c1cc2ccc(OC3CCCC3)nc2nc1C(F)(F)F [Compound 1.16] | – | – | – | – | – | – | – | – | – | – | 70 | 70 | 90 | 70 | 90 | 60 | 80 | 90 | 90 | 90
O=C1CCCC(=O)C1C(=O)c1cc2cc(F)c(-c3ccsc3)nc2nc1C(F)(F)F [Compound 1.71] | – | – | – | – | – | – | – | – | – | – | 30 | 100 | 70 | 80 | 80 | 10 | 0 | 70 | 90 | 70
O=C1CCCC(=O)C1C(=O)c1cc2ccc(Br)nc2nc1C(F)(F)F [Compound 1.99] | 30 | 100 | 70 | 80 | 80 | 10 | 100 | 90 | 90 | 40 | – | – | – | – | – | – | – | – | – | –
O=C(c1cc2ccc(CCF)nc2nc1C(F)(F)F)C1C(=O)C2CCC(C2)C1=O (centres unmarked) [Compound 3.10] | – | – | – | – | – | – | – | – | – | – | 80 | 100 | 90 | 90 | 90 | 70 | 70 | 100 | 100 | 90
